Results reported in patent US20060272107A1, “Hair relaxing composition comprising at least one non-hydroxide polyguanidine” (priority 2005, published 2006).

Test: Hair relaxing test: simplified aqueous composition applied to hair
Experimental: A simplified hair relaxing composition was prepared, containing N″,N″-1,3-propanediylbis[N,N,N′,N′-tetramethylguanidine] (RN: 289474-28-8) at a concentration of 0.5M in water, as active relaxing agent. This composition was applied to naturally frizzy African hair for 20 minutes at a temperature of 30° C.
A simplified hair relaxing composition was prepared, containing N″,N″,N″″-(nitrilotri-2,1-ethanediyl)tris[N,N,N′,N′-tetramethylguanidine] (RN: 368866-05-1) at a concentration of 0.25M in water, as active relaxing agent. This composition was applied to naturally frizzy African hair for 25 minutes at a temperature of 30° C.

CN(C)C(=NCCCN=C(N(C)C)N(C)C)N(C)C [N″,N″-1,3-propanediylbis[N,N,N′,N′-tetramethylguanidine]]
hair relaxing (0.5M in water, applied for 20 minutes at 30° C): effectively relaxed

CN(C)C(=NCCN(CCN=C(N(C)C)N(C)C)CCN=C(N(C)C)N(C)C)N(C)C [N″,N″,N″″-(nitrilotri-2,1-ethanediyl)tris[N,N,N′,N′-tetramethylguanidine]]
hair relaxing (0.25M in water, applied for 25 minutes at 30° C): effectively relaxed
